Data reported in US6737383B1, “Herbicidal oxadiazolidines” (priority 1999, dated 2004).

How the values were obtained:
common pursiane = test: Test D common purslane; type: in vivo, Portulaca oleracea
Outline: (§1)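 Greenhouse pots, sandy loam, single species per pot. Preemergence tests: soil-surface application ≤1 day after planting. Compound formulated in non-phytotoxic solvent with surfactant. Visual rating 14–21 DAT, scale 0–100.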

guineagrass = test: Test D guineagrass; type: in vivo, Panicum maximum; details: Preemergence, 0 to 100 scale
Outline: as §1

Green foxtail [1] = test: Test D green foxtail; type: in vivo
Outline: as §1

large crabgrass = test: Test D large crabgrass; type: in vivo, Digitaria sanguinalis; details: Preemergence, 0 to 100 scale
Outline: as §1

common ragweed = test: Test D common ragweed; type: in vivo, Ambrosia elatior; details: Preemergence, 0 to 100 scale
Outline: as §1

bermuda-grass = test: Test D bermudagrass; type: in vivo, Cynodon dactylon; details: Preemergence, 0 to 100 scale
Outline: as §1

itchgrass = test: Test D itchgrass; type: in vivo, Rottboellia exaltata; details: Preemergence, 0 to 100 scale
Outline: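 Scoring used a 0–100 visual injury scale, with 0 meaning no effect and 100 complete control, assessed 14–21 days after application alongside untreated pots. Preemergence treatments went onto sandy loam surfaces of separately potted seeds within a day of sowing.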

pitted morningglory = test: Test D pitted morningglory; type: in vivo, Ipomoea lacunosa; details: Preemergence, 0 to 100 scale
Outline: as §1

Spanishneedles = test: Test D Spanishneedles; type: in vivo, Bidens bipinnata; details: Preemergence, 0 to 100 scale
Outline: as §1

common groundsel = test: Test D common groundsel; type: in vivo, Senecio vulgaris; details: Preemergence, 0 to 100 scale
Outline: as §1

purple nutsedge = test: Test D purple nutsedge; type: in vivo, Cyperus rotundus; details: Preemergence, 0 to 100 scale
Outline: as §1

dallisgrass = test: Test D dallisgrass; type: in vivo, Paspalum dilatatum; details: Preemergence, 0 to 100 scale
Outline: as §1

Green foxtail [2] = test: Test D green foxtail; type: in vivo; details: Preemergence, 0 to 100 scale
Outline: as §1

sandbur = test: Test D sandbur; type: in vivo, Cenchrus echinatus; details: Preemergence, 0 to 100 scale
Outline: as §1

goosegrass = test: Test D goosegrass; type: in vivo, Eleusine indica; details: Preemergence, 0 to 100 scale
Outline: as §1

[3] = Rate 16 g/ha; Preemergence; 0 to 100 scale, 0 no injury, 100 complete control
[4] = Rate 32 g/ha; Preemergence; 0 to 100 scale, 0 no injury, 100 complete control
[5] = Rate 64 g/ha, Preemergence; 0 to 100 scale, 0 no injury, 100 complete control
[6] = Rate 125 g/ha, Preemergence; 0 to 100 scale, 0 no injury, 100 complete control
[7] = Rate 250 g/ha; Preemergence; 0 to 100 scale
[8] = Rate 500 g/ha, Preemergence; 0 to 100 scale
[9] = Rate 500 g/ha; Preemergence; 0 to 100 scale
[10] = Rate 16 g/ha, 0 no injury, 100 complete control
[11] = Rate 32 g/ha, 0 no injury, 100 complete control
[12] = Rate 64 g/ha, 0 no injury, 100 complete control
[13] = Rate 125 g/ha, 0 no injury, 100 complete control

## CC(C)N(C(=O)n1oc(=O)n(C2CCCCC2)c1=O)c1ccc(F)cc1F [Compound 115]
Common pursiane; [3]
  Plant response rating, C. purslane: 0
Common pursiane; [4]
  Plant response rating, C. purslane: 0
Common pursiane; [5]
  Plant response rating, C. purslane: 0
Common pursiane; [6]
  Plant response rating, C. purslane: 0
Common pursiane; [7]
  Plant response rating, C. purslane: 0
Common pursiane; [8]
  Plant response rating, C. purslane: 20
Common pursiane; [9]
  Plant response rating, C. purslane: 0
guineagrass; [10]
  Plant response rating, Guineagrass: 0
guineagrass; [11]
  Plant response rating, Guineagrass: 30
guineagrass; [12]
  Plant response rating, Guineagrass: 30
guineagrass; [13]
  Plant response rating, Guineagrass: 85
guineagrass; Rate 250 g/ha
  Plant response rating, Guineagrass: 98
guineagrass; Rate 500 g/ha
  Plant response rating, Guineagrass: 100
Green foxtail [1]; Preemergence; Rate 16 g/ha; 0 to 100 scale, 0 no injury, 100 complete control
  Plant response rating, Green foxtail: 0
Green foxtail [1]; Preemergence; Rate 32 g/ha; 0 to 100 scale, 0 no injury, 100 complete control
  Plant response rating, Green foxtail: 70
Green foxtail [1]; [3]
  Plant response rating, Green foxtail: 0
Green foxtail [1]; [4]
  Plant response rating, Green foxtail: 75
Green foxtail [1]; [5]
  Green foxtail plant response rating: 85
  Plant response rating, Green foxtail: 85
Green foxtail [1]; [6]
  Green foxtail plant response rating: 100
  Plant response rating, Green foxtail: 100
Green foxtail [1]; [7]
  Plant response rating, Green foxtail: 100
Green foxtail [1]; [8]
  Plant response rating, Green foxtail: 100
Large crabgrass; [10]
  Plant response rating Large crabgrass: 75
Large crabgrass; [11]
  Plant response rating Large crabgrass: 75
Large crabgrass; [12]
  Plant response rating Large crabgrass: 85
Large crabgrass; [13]
  Plant response rating Large crabgrass: 100
Large crabgrass; Rate 250 g/ha
  Plant response rating Large crabgrass: 100
Large crabgrass; Rate 500 g/ha
  Plant response rating Large crabgrass: 100
Common ragweed; [10]
  Plant response rating, C. ragweed: 0
Common ragweed; [11]
  Plant response rating, C. ragweed: 0
Common ragweed; [12]
  Plant response rating, C. ragweed: 0
Common ragweed; [13]
  Plant response rating, C. ragweed: 10
Common ragweed; Rate 250 g/ha
  Plant response rating, C. ragweed: 20
Common ragweed; Rate 500 g/ha
  Plant response rating, C. ragweed: 20
bermuda-grass; [10]
  Plant response rating, Bermudagrass: 75
bermuda-grass; [11]
  Plant response rating, Bermudagrass: 98
bermuda-grass; [12]
  Plant response rating, Bermudagrass: 98
bermuda-grass; [13]
  Plant response rating, Bermudagrass: 100
bermuda-grass; Rate 250 g/ha
  Plant response rating, Bermudagrass: 100
bermuda-grass; Rate 500 g/ha
  Plant response rating, Bermudagrass: 100
itchgrass; [10]
  Plant response rating, Itchgrass: 40
itchgrass; [11]
  Plant response rating, Itchgrass: 40
itchgrass; [12]
  Plant response rating, Itchgrass: 40
itchgrass; [13]
  Plant response rating, Itchgrass: 50
itchgrass; Rate 250 g/ha
  Plant response rating, Itchgrass: 50
itchgrass; Rate 500 g/ha
  Plant response rating, Itchgrass: 50
Pitted morningglory; [10]
  Plant response rating, P. morninglory: 0
Pitted morningglory; [11]
  Plant response rating, P. morninglory: 0
Pitted morningglory; [12]
  Plant response rating, P. morninglory: 0
Pitted morningglory; [13]
  Plant response rating, P. morninglory: 0
Pitted morningglory; Rate 250 g/ha
  Plant response rating, P. morninglory: 0
Pitted morningglory; Rate 500 g/ha
  Plant response rating, P. morninglory: 10
Spanishneedles; [10]
  Plant response rating, Spanishneedles: 0
Spanishneedles; [11]
  Plant response rating, Spanishneedles: 0
Spanishneedles; [12]
  Spanishneedles plant response rating: 0
Spanishneedles; [13]
  Spanishneedles plant response rating: 0
Spanishneedles; Rate 500 g/ha
  Plant response rating, Spanishneedles: 10
Common groundsel; [10]
  Plant response rating, Com. groundsel: 0
Common groundsel; [11]
  Plant response rating, Com. groundsel: 0
Common groundsel; [12]
  Plant response rating, Com. groundsel: 10
Common groundsel; [13]
  Plant response rating, Com. groundsel: 10
Common groundsel; Rate 250 g/ha
  Plant response rating, Com. groundsel: 10
Common groundsel; Rate 500 g/ha
  Plant response rating, Com. groundsel: 98
Purple nutsedge; [10]
  Plant response rating, Purple nutsedge: 0
Purple nutsedge; [11]
  Plant response rating, Purple nutsedge: 0
Purple nutsedge; [12]
  Purple nutsedge plant response rating: 0
Purple nutsedge; [13]
  Purple nutsedge plant response rating: 0
Purple nutsedge; Rate 250 g/ha
  Plant response rating, Purple nutsedge: 0
Purple nutsedge; Rate 500 g/ha
  Plant response rating, Purple nutsedge: 0
dallisgrass; [10]
  Plant response rating, Dallisgrass: 0
dallisgrass; [11]
  Plant response rating, Dallisgrass: 75
dallisgrass; [12]
  Plant response rating, Dallisgrass: 75
dallisgrass; [13]
  Plant response rating, Dallisgrass: 98
dallisgrass; Rate 250 g/ha
  Plant response rating, Dallisgrass: 98
dallisgrass; Rate 500 g/ha
  Plant response rating, Dallisgrass: 100
Green foxtail [2]; Rate 250 g/ha
  Plant response rating, Green foxtail: 100
Green foxtail [2]; Rate 500 g/ha
  Plant response rating, Green foxtail: 100
sandbur; [10]
  Plant response rating, Sandbur: 0
sandbur; [11]
  Plant response rating, Sandbur: 0
sandbur; [12]
  Sandbur plant response rating: 0
sandbur; [13]
  Sandbur plant response rating: 40
sandbur; Rate 250 g/ha
  Plant response rating, Sandbur: 50
sandbur; Rate 500 g/ha
  Plant response rating, Sandbur: 100
goosegrass; [10]
  Plant response rating, Goosegrass: 20
goosegrass; [11]
  Plant response rating, Goosegrass: 85
goosegrass; [12]
  Plant response rating, Goosegrass: 90
goosegrass; [13]
  Plant response rating, Goosegrass: 98
goosegrass; Rate 250 g/ha
  Plant response rating, Goosegrass: 100
goosegrass; Rate 500 g/ha
  Plant response rating, Goosegrass: 100

## CCn1c(=O)on(C(=O)N(c2ccccc2)C(C)C)c1=O [Compound 117]
Common pursiane; [5]
  Plant response rating, C. purslane: 0
Common pursiane; [6]
  Plant response rating, C. purslane: 0
Common pursiane; [8]
  Plant response rating, C. purslane: 65
Common pursiane; [9]
  Plant response rating, C. purslane: 0
guineagrass; [12]
  Plant response rating, Guineagrass: 100
guineagrass; [13]
  Plant response rating, Guineagrass: 100
guineagrass; Rate 500 g/ha
  Plant response rating, Guineagrass: 100
Green foxtail [1]; [5]
  Green foxtail plant response rating: 100
  Plant response rating, Green foxtail: 100
Green foxtail [1]; [6]
  Green foxtail plant response rating: 100
  Plant response rating, Green foxtail: 100
Green foxtail [1]; [8]
  Plant response rating, Green foxtail: 100
Large crabgrass; [12]
  Plant response rating Large crabgrass: 98
Large crabgrass; [13]
  Plant response rating Large crabgrass: 98
Large crabgrass; Rate 500 g/ha
  Plant response rating Large crabgrass: 100
Common ragweed; [12]
  Plant response rating, C. ragweed: 0
Common ragweed; [13]
  Plant response rating, C. ragweed: 0
Common ragweed; Rate 500 g/ha
  Plant response rating, C. ragweed: 65
bermuda-grass; [12]
  Plant response rating, Bermudagrass: 98
bermuda-grass; [13]
  Plant response rating, Bermudagrass: 100
bermuda-grass; Rate 500 g/ha
  Plant response rating, Bermudagrass: 100
itchgrass; [12]
  Plant response rating, Itchgrass: 40
itchgrass; [13]
  Plant response rating, Itchgrass: 75
itchgrass; Rate 500 g/ha
  Plant response rating, Itchgrass: 100
Pitted morningglory; [12]
  Plant response rating, P. morninglory: 0
Pitted morningglory; [13]
  Plant response rating, P. morninglory: 20
Pitted morningglory; Rate 500 g/ha
  Plant response rating, P. morninglory: 40
Spanishneedles; [12]
  Spanishneedles plant response rating: 0
Spanishneedles; [13]
  Spanishneedles plant response rating: 0
Spanishneedles; Rate 500 g/ha
  Plant response rating, Spanishneedles: 0
Common groundsel; [12]
  Plant response rating, Com. groundsel: 0
Common groundsel; [13]
  Plant response rating, Com. groundsel: 75
Common groundsel; Rate 500 g/ha
  Plant response rating, Com. groundsel: 100
Purple nutsedge; [12]
  Purple nutsedge plant response rating: 0
Purple nutsedge; [13]
  Purple nutsedge plant response rating: 0
Purple nutsedge; Rate 500 g/ha
  Plant response rating, Purple nutsedge: 100
dallisgrass; [12]
  Plant response rating, Dallisgrass: 85
dallisgrass; [13]
  Plant response rating, Dallisgrass: 95
dallisgrass; Rate 500 g/ha
  Plant response rating, Dallisgrass: 100
Green foxtail [2]; Rate 500 g/ha
  Plant response rating, Green foxtail: 100
sandbur; [12]
  Sandbur plant response rating: 0
sandbur; [13]
  Sandbur plant response rating: 0
sandbur; Rate 500 g/ha
  Plant response rating, Sandbur: 100
goosegrass; [12]
  Plant response rating, Goosegrass: 85
goosegrass; [13]
  Plant response rating, Goosegrass: 100
goosegrass; Rate 500 g/ha
  Plant response rating, Goosegrass: 100
